Reference: PubChem BioAssay (NCI)
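Cells were grown in 96-well plates and exposed to each compound for 48 hours at five concentrations; endpoints were interpolated linearly between bracketing concentrations, or set to the highest concentration if not reached. TGI: total growth inhibition.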

Tests used:
Assay in all cases: NCI tumour cell line growth inhibition, 48 h
SF-268 CNS = tested on: SF-268 CNS
MDA-MB-231 breast = tested on: MDA-MB-231 breast
UACC-257 melanoma = tested on: UACC-257 melanoma
IGROV1 ovarian = tested on: IGROV1 ovarian
RPMI-8226 leukemia = tested on: RPMI-8226 leukemia
K-562 leukemia = tested on: K-562 leukemia
OVCAR-3 ovarian = tested on: OVCAR-3 ovarian
HCT-116 colon = tested on: HCT-116 colon
MDA-N = tested on: MDA-N
HCC-2998 colon = tested on: HCC-2998 colon
HCT-15 colon = tested on: HCT-15 colon
HS 578T breast = tested on: HS 578T breast
SK-OV-3 ovarian = tested on: SK-OV-3 ovarian
U251 CNS = tested on: U251 CNS
NCI-H23 lung = tested on: NCI-H23 lung
SNB-19 CNS = tested on: SNB-19 CNS
PC-3 prostate = tested on: PC-3 prostate
ACHN renal = tested on: ACHN renal
SN12C renal = tested on: SN12C renal
NCI-H460 lung = tested on: NCI-H460 lung
OVCAR-8 ovarian = tested on: OVCAR-8 ovarian
M14 melanoma = tested on: M14 melanoma
A549 NSCLC = tested on: A549 NSCLC
SW-620 colon = tested on: SW-620 colon
UACC-62 melanoma = tested on: UACC-62 melanoma
MOLT-4 leukemia = tested on: MOLT-4 leukemia
UO-31 renal = tested on: UO-31 renal
SR leukemia = tested on: SR leukemia
MDA-MB-435 = tested on: MDA-MB-435
DU-145 prostate = tested on: DU-145 prostate
EKVX NSCLC = tested on: EKVX NSCLC
HL-60(TB) leukemia = tested on: HL-60(TB) leukemia
SNB-75 CNS = tested on: SNB-75 CNS
SK-MEL-28 melanoma = tested on: SK-MEL-28 melanoma
HOP-92 NSCLC = tested on: HOP-92 NSCLC
COLO 205 colon = tested on: COLO 205 colon
CCRF-CEM leukemia = tested on: CCRF-CEM leukemia
HT29 colon = tested on: HT29 colon
A498 renal = tested on: A498 renal
SK-MEL-5 melanoma = tested on: SK-MEL-5 melanoma
NCI/ADR-RES ovarian = tested on: NCI/ADR-RES ovarian
BT-549 breast = tested on: BT-549 breast
LOX IMVI melanoma = tested on: LOX IMVI melanoma
TK-10 renal = tested on: TK-10 renal
786-0 renal = tested on: 786-0 renal
KM12 colon = tested on: KM12 colon
CAKI-1 renal = tested on: CAKI-1 renal
RXF 393 renal = tested on: RXF 393 renal
MCF7 breast = tested on: MCF7 breast
NCI-H226 lung = tested on: NCI-H226 lung
OVCAR-4 ovarian = tested on: OVCAR-4 ovarian
T-47D breast = tested on: T-47D breast
OVCAR-5 ovarian = tested on: OVCAR-5 ovarian
SF-539 CNS = tested on: SF-539 CNS
SK-MEL-2 melanoma = tested on: SK-MEL-2 melanoma
HOP-62 NSCLC = tested on: HOP-62 NSCLC
MALME-3M melanoma = tested on: MALME-3M melanoma
NCI-H522 lung = tested on: NCI-H522 lung
SF-295 CNS = tested on: SF-295 CNS

N#CC1=C(N)OC2=C(CCCc3ccccc32)C1c1ccc([N+](=O)[O-])cc1 (configuration not stated)
TGI (SF-268 CNS): 32.7 µM | TGI (MDA-MB-231 breast): > 100 µM | TGI (UACC-257 melanoma): 32.4 µM | TGI (IGROV1 ovarian): 54 µM | TGI (RPMI-8226 leukemia): 13.1 µM | TGI (K-562 leukemia): 11.5 µM | TGI (OVCAR-3 ovarian): 26.7 µM | TGI (HCT-116 colon): 26.1 µM | TGI (MDA-N): 38.2 µM | TGI (HCC-2998 colon): 26.8 µM | TGI (HCT-15 colon): 30.7 µM | TGI (HS 578T breast): > 100 µM | TGI (SK-OV-3 ovarian): 92.1 µM | TGI (U251 CNS): 29.8 µM | TGI (NCI-H23 lung): 34.6 µM | TGI (SNB-19 CNS): 45.7 µM | TGI (PC-3 prostate): 38.8 µM | TGI (ACHN renal): 39.1 µM | TGI (SN12C renal): 29 µM | TGI (NCI-H460 lung): 47.7 µM | TGI (OVCAR-8 ovarian): 39 µM | TGI (M14 melanoma): 28 µM | TGI (A549 NSCLC): 74.6 µM | TGI (SW-620 colon): 35.5 µM | TGI (UACC-62 melanoma): 24.5 µM | TGI (MOLT-4 leukemia): 1.64 µM | TGI (UO-31 renal): 24 µM | TGI (SR leukemia): 37.4 µM | TGI (MDA-MB-435): 39.8 µM | TGI (DU-145 prostate): 21.8 µM | TGI (EKVX NSCLC): 43 µM | TGI (HL-60(TB) leukemia): 28.2 µM | TGI (SNB-75 CNS): > 100 µM | TGI (SK-MEL-28 melanoma): 35.2 µM | TGI (HOP-92 NSCLC): 57.9 µM | TGI (COLO 205 colon): 31.7 µM | TGI (CCRF-CEM leukemia): 23.2 µM | TGI (HT29 colon): 28.2 µM | TGI (A498 renal): 27.1 µM | TGI (SK-MEL-5 melanoma): 28.3 µM | TGI (NCI/ADR-RES ovarian): 31.6 µM | TGI (BT-549 breast): 23.9 µM | TGI (LOX IMVI melanoma): 41.1 µM | TGI (TK-10 renal): 84.9 µM | TGI (786-0 renal): 42.6 µM | TGI (KM12 colon): 32.5 µM | TGI (CAKI-1 renal): > 100 µM | TGI (RXF 393 renal): 27.6 µM | TGI (MCF7 breast): 36.4 µM | TGI (NCI-H226 lung): 52.5 µM | TGI (OVCAR-4 ovarian): 75.4 µM | TGI (T-47D breast): 26.1 µM | TGI (OVCAR-5 ovarian): 50.2 µM | TGI (SF-539 CNS): 35.2 µM | TGI (SK-MEL-2 melanoma): 40.8 µM | TGI (HOP-62 NSCLC): 35.9 µM | TGI (MALME-3M melanoma): 29.9 µM | TGI (NCI-H522 lung): 24.2 µM | TGI (SF-295 CNS): 36.1 µM

Cc1ccc(NCCN(C)C)c2c(=O)c3cc(O)ccc3oc12
TGI (SF-268 CNS): 17.7 µM | TGI (MDA-MB-231 breast): 22.2 µM | TGI (UACC-257 melanoma): 32.7 µM | TGI (IGROV1 ovarian): 24.9 µM | TGI (RPMI-8226 leukemia): 34.3 µM | TGI (K-562 leukemia): 12.3 µM | TGI (OVCAR-3 ovarian): 30.8 µM | TGI (HCT-116 colon): 17.2 µM | TGI (MDA-N): 23 µM | TGI (HCC-2998 colon): 24.3 µM | TGI (HCT-15 colon): 21.2 µM | TGI (HS 578T breast): 19.9 µM | TGI (SK-OV-3 ovarian): 26.4 µM | TGI (U251 CNS): 21 µM | TGI (NCI-H23 lung): 25.6 µM | TGI (SNB-19 CNS): 23.7 µM | TGI (PC-3 prostate): 24.2 µM | TGI (ACHN renal): 17.6 µM | TGI (SN12C renal): 20.2 µM | TGI (NCI-H460 lung): 15 µM | TGI (OVCAR-8 ovarian): 19.7 µM | TGI (M14 melanoma): 25.3 µM | TGI (A549 NSCLC): 20.9 µM | TGI (SW-620 colon): 17 µM | TGI (UACC-62 melanoma): 23 µM | TGI (MOLT-4 leukemia): 11.7 µM | TGI (UO-31 renal): 22.1 µM | TGI (SR leukemia): 3.35 µM | TGI (MDA-MB-435): 24.4 µM | TGI (DU-145 prostate): 28.3 µM | TGI (EKVX NSCLC): 29.2 µM | TGI (HL-60(TB) leukemia): 19.4 µM | TGI (SNB-75 CNS): 16 µM | TGI (SK-MEL-28 melanoma): 28.4 µM | TGI (HOP-92 NSCLC): 23.4 µM | TGI (COLO 205 colon): 24.2 µM | TGI (CCRF-CEM leukemia): 16 µM | TGI (HT29 colon): 23.7 µM | TGI (A498 renal): 28.2 µM | TGI (SK-MEL-5 melanoma): 24 µM | TGI (NCI/ADR-RES ovarian): 24.3 µM | TGI (BT-549 breast): 30.6 µM | TGI (LOX IMVI melanoma): 22.2 µM | TGI (TK-10 renal): 27.9 µM | TGI (786-0 renal): 18.3 µM | TGI (KM12 colon): 25 µM | TGI (CAKI-1 renal): 22.9 µM | TGI (RXF 393 renal): 24.4 µM | TGI (MCF7 breast): 19.6 µM | TGI (NCI-H226 lung): 29.5 µM | TGI (OVCAR-4 ovarian): 31.3 µM | TGI (T-47D breast): 31.5 µM | TGI (OVCAR-5 ovarian): 29.1 µM | TGI (SF-539 CNS): 20.5 µM | TGI (SK-MEL-2 melanoma): 35.4 µM | TGI (HOP-62 NSCLC): 23.3 µM | TGI (MALME-3M melanoma): 27.3 µM | TGI (NCI-H522 lung): 21.7 µM | TGI (SF-295 CNS): 23 µM

O=C1c2ccccc2C(=O)N1CCCC(=O)n1cc(F)c(=O)[nH]c1=O
TGI (SF-268 CNS): > 100 µM | TGI (MDA-MB-231 breast): > 100 µM | TGI (UACC-257 melanoma): > 100 µM | TGI (IGROV1 ovarian): > 100 µM | TGI (RPMI-8226 leukemia): > 77.5 µM | TGI (K-562 leukemia): > 100 µM | TGI (OVCAR-3 ovarian): > 79 µM | TGI (HCT-116 colon): > 100 µM | TGI (MDA-N): > 100 µM | TGI (HCC-2998 colon): > 100 µM | TGI (HCT-15 colon): > 100 µM | TGI (HS 578T breast): > 100 µM | TGI (SK-OV-3 ovarian): > 100 µM | TGI (U251 CNS): > 100 µM | TGI (NCI-H23 lung): > 100 µM | TGI (SNB-19 CNS): > 100 µM | TGI (PC-3 prostate): > 100 µM | TGI (ACHN renal): > 100 µM | TGI (SN12C renal): > 100 µM | TGI (NCI-H460 lung): > 100 µM | TGI (OVCAR-8 ovarian): > 100 µM | TGI (M14 melanoma): > 100 µM | TGI (A549 NSCLC): > 100 µM | TGI (SW-620 colon): > 100 µM | TGI (UACC-62 melanoma): > 100 µM | TGI (MOLT-4 leukemia): > 100 µM | TGI (UO-31 renal): > 100 µM | TGI (SR leukemia): > 100 µM | TGI (MDA-MB-435): > 100 µM | TGI (DU-145 prostate): > 100 µM | TGI (EKVX NSCLC): > 100 µM | TGI (HL-60(TB) leukemia): > 100 µM | TGI (SNB-75 CNS): > 100 µM | TGI (SK-MEL-28 melanoma): > 100 µM | TGI (HOP-92 NSCLC): > 100 µM | TGI (COLO 205 colon): > 100 µM | TGI (CCRF-CEM leukemia): > 100 µM | TGI (HT29 colon): > 100 µM | TGI (A498 renal): > 100 µM | TGI (SK-MEL-5 melanoma): > 100 µM | TGI (NCI/ADR-RES ovarian): > 100 µM | TGI (BT-549 breast): > 100 µM | TGI (LOX IMVI melanoma): > 100 µM | TGI (TK-10 renal): > 100 µM | TGI (786-0 renal): > 100 µM | TGI (KM12 colon): > 100 µM | TGI (CAKI-1 renal): > 100 µM | TGI (RXF 393 renal): > 100 µM | TGI (MCF7 breast): > 100 µM | TGI (NCI-H226 lung): > 100 µM | TGI (OVCAR-4 ovarian): > 100 µM | TGI (T-47D breast): > 100 µM | TGI (OVCAR-5 ovarian): > 100 µM | TGI (SF-539 CNS): > 100 µM | TGI (SK-MEL-2 melanoma): > 100 µM | TGI (HOP-62 NSCLC): > 24.6 µM | TGI (MALME-3M melanoma): > 100 µM | TGI (NCI-H522 lung): > 100 µM | TGI (SF-295 CNS): > 100 µM
